Experimental findings from article PMC2964311, “The Human Host Defense Peptide LL-37 Interacts with Neisseria meningitidis Capsular Polysaccharides and Inhibits Inflammatory Mediators Release” (PLoS ONE, 2010) are described below.

Assay [1] has as its system N. gonorrhoeae strain FA 19. The settings on record: for MIC activity against gonococci (in words): N. gonorrhoeae FA19. The protocol:
The peptides were dissolved in 0.01 % (v/v) acetic acid and stored at −20°C prior to use. Antibacterial assays were performed as described previously and used N. gonorrhoeae strain FA 19. All assays were performed in triplicate and values are reported as the minimal inhibitory concentration (MIC).

Assay [2] deals with purified CPS polymers. The assay can be described thus: Neutralizing activity against purified CPS polymers (pro-inflammatory capacity of CPS). The following applies: compared with LL-37. In kind it is cell-based, Neisseria meningitidis. As for the experimental part: (§1) Human THP-1 (macrophage-like cells) and murine RAW 264.7 (TLR4-sufficient), 23ScCr (TLR4-deficient) and HEK-TLR2/6/CD14 stably transfected cell lines were stimulated with meningococcal CPS polymers with or without pre-incubation with LL-37 and its analogs (Table 1). CPS polymers were purified from the LPS-deficient serogroup B Neisseria meningitidis lpxA mutant as well as other meningococcal serogroups A, B, C, W135 and Y. Purified CPS samples were freshly dissolved in pyrogen-free sterile H2O at 1 mg/ml stock concentration and vortexed for 2 min. Working CPS concentrations (ranging from 100 µg/ml to 50 ng/ml) were made in duplicate wells using sterile PBS by serial fold dilutions in the 96-well tissue culture plates (Becton Dickinson, Franklin Lakes, NJ) at 50 µl final volumes. Cationic peptides (2, 4 or 8 µg/ml) or PBS equivalent volumes were added to designated wells and pre-incubated for 30 min at 37°C. Freshly grown THP-1 cells and HEK-TLR2/6 transfected cells as well as murine macrophages, each adjusted to 10^6 cell/ml and 250 µl aliquots were dispensed into each well at final 250×10^3 cell density in the designated 96-well plates. The plates were incubated overnight at 37°C with 5% CO2 and humidity. Supernatants from stimulated cells were harvested and stored at −20°C until use.

Assay [3] has as its system RAW 264.7 macrophages. The assay can be described thus: Nitric oxide release from RAW 264.7 macrophages induced with meningococcal CPS (Griess method). The format is cell-based, murine. The following applies: RAW 264, serogroup A CPS (laboratory NMA or vaccine grade MAPS 20 µg/ml) pre-incubated with 4 µg/ml analogs; nitrite after 24 h; Figure S1A, S1B. The protocol:
as §1
Freshly grown adherent RAW 246.7 or 23ScCr (TLR4-deficient) macrophages were harvested, washed and re-suspended in Dulbecco's complete media, counted and adjusted to 10^6 cell/ml. 250 µl aliquots were then dispensed into each well of a 96-well plate at final 250×10^3 cell density prior to stimulation with purified CPS polymers with or without cationic peptides. The induced RAW 264.7 or 23ScCr macrophages were incubated overnight at 37°C with 5% CO2 and supernatants were harvested and saved. Nitric oxide release was quantified using the Greiss chemical method as previously described.
Background: Nitrite, measured by Griess reagent, commonly stands in for NO production.

Assay [4] relates to ScCr (TLR4-deficient) murine macrophages. The assay can be described thus: Nitric oxide release from 23ScCr (TLR4-deficient) macrophages induced with meningococcal CPS (Griess method). In kind it is cell-based. The settings on record: ScCr cells, 20 µg/ml CPS of serogroups A, B, C, Y, W135 pre-incubated 30 min with 4 µg/ml LL-37 analogs or 20 µg/ml ampicillin or erythromycin; overnight; Figure 6. As for the experimental part: as §1, with “Freshly grown THP-1 cells and HEK-TLR2/6 transfected cells as well as murine macrophages, each adjusted to 10^6 cell/ml and 250 µl aliquots were dispensed into each well at final 250×10^3 cell density in the designated 96-well plates. The plates were incubated overnight at 37°C with 5% CO2 and humidity. Supernatants from stimulated cells were harvested and stored at −20°C until use.” left out
Freshly grown adherent RAW 246.7 or 23ScCr (TLR4-deficient) macrophages were harvested, washed and re-suspended in Dulbecco's complete media, counted and adjusted to 10^6 cell/ml. […] Nitric oxide release was quantified using the Greiss chemical method as previously described.

The subject of assay [5] is THP-1 cells. Put plainly: TNFα release from THP-1 cells induced with meningococcal CPS pre-incubated with peptide (ELISA). In kind it is cell-based, human. As for the experimental part:
as §1, with “Cationic peptides (2, 4 or 8 µg/ml) or PBS equivalent volumes were added to designated wells and pre-incubated for 30 min at 37°C.” left out
(§2) The cytokines TNFα, IL-6 and CXCL10 (IP-10), released from THP-1 cells, and IL-8, released from HEK-TLR2 transfected cells stimulated with meningococcal CPS polymers, were quantified by DuoSet ELISA (R&D Systems) as previously described.

The subject of assay [6] is THP-1 cells. Put plainly: IL-6 release from THP-1 cells induced with meningococcal CPS pre-incubated with peptide (ELISA). The format is cell-based, human. The settings on record: THP-1 cells, CPS-lpxA 100 µg to 50 ng/ml with 10 µg/ml synthetic analogs; Figure 3B. The protocol: as §1, with “Cationic peptides (2, 4 or 8 µg/ml) or PBS equivalent volumes were added to designated wells and pre-incubated for 30 min at 37°C.” left out, “Supernatants from stimulated cells were harvested and stored at −20°C until use.” left out
as §2
Background: In an ELISA, binding on a coated surface is turned into a signal by an enzyme label.

In assay [7] the test system is NFκB. Put plainly: Inducible NFκB dual luciferase reporter in HEK-TLR2/6 cells stimulated with CPS-lpxA. The format is cell-based, human. The settings on record: CPS-lpxA (20 µg/ml) pre-incubated with analogs (4 µg/ml) 30 min, induction 5 h, firefly normalized to Renilla, Figure 7A. The text has this:
To determine the signaling pathways induced upon meningococcal CPS recognition, a transcription factors array (Cignal Finder™ 10-Pathway Reporter Arrays, SABiosciences, Fredrick, MD) consisting of 10 dual-luciferase reporters assays were used according to the manufacturer instructions. Each of the 10 reporter assays encodes for an inducible transcription factor responsive firefly luciferase reporter and constitutively expressing Renilla construct in 40∶1 ratio. Briefly, DNA reporter master mixes were prepared in SureFect transfection reagent (SABiosciences) diluted in Opti-MEM media without serum or antibiotics and 25 µl/well were dispensed into 96-well white tissue culture plates. For reverse transfection, freshly grown cells were counted and adjusted to 1×10^6 cells/ml in Opti-MEM without serum or antibiotics. 100 µl of cells (100×10^3 cells/well) were laid over the DNA reporters in 96-well plates and incubated overnight at 37°C with 5% CO2. Transfection media were removed and replaced with 150 µl of fresh D-MEM supplemented with 10% FBS and incubated again overnight at 37°C. Cells were then induced with meningococcal CPS polymers or LOS doses for 5 h and dual-luciferase reporter activity was determined using Dual-Luciferase reporter assay system (Promega Corporation, Madison, WI) following the manufacturer instructions. […]
On the technique in general: A reporter such as luciferase makes a cellular process visible.

Usually MIC stands for the smallest concentration in the dilution series that meets the test's criterion for growth inhibition.

Converted amounts (≈) assume the structure as drawn. Where two headings read alike, the source gives them in different places. Residues, ends and D or L forms follow the SMILES beside them. No end group written: not given here. *: point of attachment. Lauroyl = CCCCCCCCCCCC(=O)*

Turning to “LLGDFFRESEEEIGEEFERIVQRIEDFLRNLVPRTES [LL-37 K/E]”, the MIC in assay [1] (N. gonorrhoeae FA19 (non-encapsulated), assays in triplicate) is more than 1000 µg/mL. Besides, the “Neutralizing activity against purified CPS polymers” value (from here on “Neutralizing activity”) in assay [2] is listed as “reduced neutralizing activity”.

Compound FKRIVQRIKNFLRNLV [LL-17-32 D/N] showed an MIC in assay [1] (strain FA 19) of 3.9 µg/mL.

For `CC1(C)S[C@@H]2[C@H](NC(=O)[C@H](N)c3ccccc3)C(=O)N2[C@H]1C(=O)O` [ampicillin], in assay [3], the “Inhibition of CPS polymers (nitric oxide release)” value is “this was not seen”. The “Nitric oxide release induced by various meningococcal CPS” value in assay [4] was “this inhibition was not observed”.

Take “LLGDFFDESEEEIGEEFEDIVQDIEDFLDNLVPDTES [LL-37 R/D-K/E]”: in assay [1] (strain FA 19), the minimum inhibitory concentration (MIC) is more than 1000 µg/mL.

For `CCCCCCCCCCCC(=O)N[C@@H](Cc1ccccc1)C(=O)N[C@@H](CCCCN)C(=O)N[C@@H](CCCNC(=N)N)C(=O)N[C@H](C(=O)N[C@H](C(=O)N[C@@H](CCC(N)=O)C(=O)N[C@@H](CCCNC(=N)N)C(=O)N[C@H](C(=O)N[C@@H](CCCCN)C(=O)N[C@@H](CC(N)=O)C(=O)N[C@@H](Cc1ccccc1)C(=O)N[C@@H](CC(C)C)C(=O)N[C@@H](CCCNC(=N)N)C(=O)N[C@@H](CC(N)=O)C(=O)N[C@@H](CC(C)C)C(=O)N[C@H](C(=O)O)C(C)C)[C@@H](C)CC)C(C)C)[C@@H](C)CC` [C12LL-17-32 D/N] (Lauroyl-FKRIVQRIKNFLRNLV-OH; C-terminus assumed), the minimal inhibitory concentration (MIC) in assay [1] (strain FA 19) worked out at 3.9 µg/mL (≈ 1.75 µM). Further, in assay [5] (THP-1 cells, CPS-lpxA 100 µg to 50 ng/ml with 10 µg/ml synthetic analogs, Figure 3A), the “Inhibition of TNFα release (interaction with CPS polymers)” value is “enhanced interaction with meningococcal CPS polymers”. Besides, in assay [6], the “Inhibition of IL-6 release (interaction with CPS polymers)” value was “enhanced interaction with meningococcal CPS polymers”.

As to “LLGDFFRASAEAIGAEFARIVQRIADFLRNLVPRTES [LL-37 K/A]”, in assay [1] (strain FA 19), the MIC is more than 1000 µg/mL.

In assay [1] (strain FA 19), FKRIVQRIKDFLRNLV [LL-17-32] displayed a minimal inhibitory concentration (MIC) of 3.9 µg/mL.

Take Polymyxin B: the TNFα release entry in assay [5] (THP-1 cells induced with the CPS-lpxA-analog complexes of the NFκB experiment, Figure 7B) was “decreased TNFα release”. For the same compound, the “Inhibition of CPS polymers (nitric oxide release)” value in assay [3] is listed as “inhibited CPS polymers”. The “CPS induced NFκB induction (luciferase reporter)” value in assay [7] was “able to inhibit”.

Turning to `CC[C@H]1OC(=O)[C@H](C)[C@@H](O[C@H]2C[C@@](C)(OC)[C@@H](O)[C@H](C)O2)[C@H](C)[C@@H](O[C@@H]2O[C@H](C)C[C@H](N(C)C)[C@H]2O)[C@](C)(O)C[C@@H](C)C(=O)[C@H](C)[C@@H](O)[C@]1(C)O` [erythromycin], the “Nitric oxide release induced by various meningococcal CPS” value in assay [4] is “this inhibition was not observed”.

On to “LLGRFFRRSRRRIGRRFRRIVQRIRRFLRNLVPRTRS [LL-37 R]”, for which the “MIC activity against gonococci (in words)” value in assay [1] is recorded as “retained excellent MIC activity”. Besides, the MIC in assay [1] (strain FA 19) was 15.6 µg/mL. For the same compound, the “Neutralizing activity” value in assay [2] is given as “did not enhance the neutralizing activity”.

As to “LLGDFFDKSKEKIGKEFKDIVQDIKDFLDNLVPDTES [LL-37 R/D]”, the minimal inhibitory concentration (MIC) in assay [1] (strain FA 19) was 125 µg/mL.

Turning to “LLGKFFKKSKKKIGKKFKKIVQKIKKFLKNLVPKTKS [LL-37 K]”, the “MIC activity against gonococci (in words)” value in assay [1] is “retained excellent MIC activity”. This compound also registered an MIC in assay [1] (strain FA 19) of 7.8 µg/mL. Moreover, the “Neutralizing activity” value in assay [2] is reported as “did not enhance the neutralizing activity”.

For EKIGKEFKRIVQRIKDFLRNLVPRTES [LL-11-37], in assay [1] (strain FA 19), the MIC was found to be 7.8 µg/mL.

Compound LLGDFFRKSKEKIGKEF [LL-1-17] yielded a minimum inhibitory concentration (MIC) in assay [1] (strain FA 19) of more than 1000 µg/mL.
